The test system of assay [1] is TNFα synthesis in human peripheral blood monocytes. Put plainly: Synthesis of TNFα by human monocytes stimulated with LPS. The format is cell-based. Conditions: FIGS. 1a, 1b. The protocol:
Human peripheral blood monocytes were isolated from buffy coats by lyrnpboprep gradient separation of mononuclear cells followed by counter-current centrifugal elutriation (Demasi et al. 2000). Test compounds were dissolved in DMSO and added to fresh monocytes to achieve concentrations of 0, 10 and 100 μM. After 30 min, LPS was added to achieve a final concentration of 200 ng/mL. After 1 h, supernatants were removed and TNFα measured by ELISA previously described (Demasi et al. 2003). ANOVA followed by Newman-Keuls multiple comparisons test was used to examine differences between doses and the control values.

The test system of assay [2] is TXB2 synthesis in RAW 264.7 murine macrophages. Put plainly: LPS-induced TXB2 synthesis in RAW 264.7 murine macrophages. Particulars: 10 μM; relative to vehicle alone; FIG. 4. The format is cell-based, mouse. The protocol: The mouse macrophage cell line RAW 264.7 was cultured in DMEM supplemented with foetal calf serum (FCS), […] glutamine and 50 U/ml penicillin/streptomycin. Cells were treated with either test compound (in 0.025% DMSO) or vehicle alone, and added one hour before 50 ng/ml LPS. After incubation for 24 h, culture media was collected for PGE2 or TXB2 measurement by ELISA (Cayman Chemical), and TNFα measurement using an ELISA (Becton Dickinson). Test compounds were examined a concentration of 10 μM. […] Consequently, to assess the effect of test compounds on various analytes, cell viability was taken into consideration with the use of the formula: Actual effect of test compound=measured effect−(effect on cell viability×measured effect)

The next assay deals with IFN-γ. Put plainly: IFN-γ synthesis by mouse splenocytes (ELISA). It counts as cell-based, Skh-1:HR 1 (hairless) mice. Particulars: 10 μM; 3 days. How it is done:
(§1) Male Skh-1:HR 1 (hairless) mice, approximately six weeks old were killed by cervical dislocation. Single cell suspensions were made from the spleen and erythrocytes were lysed in buffer (0.14 M NH4Cl, 17 mM Tris, pH 7.2). The remaining splenocytes were cultured in RPMI-1640 (Gibco) supplemented with 10% (v:v) FBS, 200 mM L-glutamine, penicillin/streptomycin and […] 2-mercaptoethanol. Splenocytes were added to quadruplicate wells containing either concanavalin A (ConA, Sigma-Aldrich—0.4 μg/well), LPS (Sigma-Aldrich—1 μg/well) or no mitogen, as well 10 μM of test compound in DMSO. Samples were analysed after 3 days incubation at 37° C. in 5% CO2 in air. Methylthiazoletetrazolium (MTT) is bioreduced by viable cells into a coloured formazan product that is soluble in DMSO. Thus the quantity of formazan product is directly proportional to the number of living cells in culture, and can be measured using a spectrophotometer at 570 nm. MTT was added to each well, incubated for a further 4 hrs and then colour developed with 0.04 N HCl in isopropanol. Culture supernatants were stored after collection at −80° C. and analysed by ELISA (BD Biosciences) for IFN-γ (a Th-1 cytokine) and for T cells alone, IL-6 (a Th-2 cytokine).

The subject of another assay is IL-6. Put plainly: IL-6 synthesis by mouse splenocytes (ELISA). The format is cell-based, Skh-1:HR 1 (hairless) mice. Conditions: 10 μM; 3 days. The protocol:
as §1

In assay [3] the test system is Rabbit kidney (RK-13) cells. Put plainly: Toxicity to normal cells, rabbit kidney (RK-13) cells. It counts as cell-based. Conditions: Oryctolagus cuniculus. The protocol:
IC50 values were determined for each cell line. Cells were seeded in 96-well plates at an appropriate cell density as determined from growth kinetics analysis and cultured for 5 days in the absence and presence of the test compounds. Cell proliferation was assessed after the addition of 20 μl of 3-4,5 dimethylthiazol-2,5-diphenyl tetrazolium bromide (MTT, 2.5 mg/ml in PBS, Sigma) for 3-4 hrs at 37° C. according to manufacturer's instructions. IC50 values were calculated from semi-log plots of % of control proliferation on the y-axis against log dose on the x-axis.
The neonatal foreskin fibroblasts (NFF) were a gift from Dr. Peter Parsons (Queensland Institute of Medical Research). Rabbit kidney (RK-13) cells were obtained from Miller Whalley (Macquarie University). Both cell lines were cultured in RPMI supplemented with 10% FCS(CSL, Australia), penicillin (100 U/ml), streptomycin ([…]), L-glutamine (2 mM) and sodium bicarbonate (1.2 g/L), and cultured at 37° C. in a humidified atmosphere of 5% CO2. IC50 values were determined as described above.

A further assay deals with VCAM. As to the kind of experiment: TNFα-induced VCAM expression in human arterial endothelial cells (ELISA). It counts as cell-based. Particulars: HAEC; 10 μM found most appropriate for comparing. How it is done:
Inhibition of TNFα-stimulated endothelial cell activation by compounds was assessed by measuring surface expression of cell adhesion molecules with an ELISA method. Human arterial endothelial cells (HAEC) in growth medium (Cell Applications Inc.) were seeded into 96-well plates at a density of 10,000 cells per well. Plates were incubated overnight at 37° C. in a humidified incubator to allow for cells to become confluent. On the morning of the experiment, TNFα (10 μl, 2 ng/ml) was added to each well, which contained 100 μl of medium. Compounds were diluted in DMSO-containing medium (2.5% DMSO) to give a compound concentration of 100 and 300 μM. Compounds were added to wells so that final concentrations were 10 and 30 μM. DMSO-containing medium alone was added to zero concentration control wells. All samples were measured in quadruplicate (4 wells per treatment).
After incubation with compound, medium was removed and cells were probed with either non-specific IgG or specific mouse antibodies against E-selectin, ICAM or VCAM (BD Biosciences—0.1 μg in 100 μL buffered saline with 10% heat-inactivated human serum). Adhesion molecule expression was detected by addition of sheep anti-mouse antibody/horseradish peroxidase conjugate. […] Optical density was measured at 405 nm with an ELISA reader (Titertek Multiscan, Flow Laboratories). […]
For orientation: An ELISA detects its analyte on a solid surface through an enzyme-linked reagent.

SMILES strings stand for the structures. Where two headings read alike, the source gives them in different places. Some results are limits rather than exact numbers.

This is an account of results in patent US8367659B2, “Oxazinyl isoflavonoid compounds, medicaments and use” (Marshall Edwards, Inc., priority 2007, dated 2013).

On to `CC(c1ccccc1)N1COc2cc3c(cc2C1)C=C(c1ccc(O)cc1)CO3` (stereo not shown) [Compound 2, 4-(3-(1-Phenylethyl)-2,3,4,8-tetrahydrochromeno[6,7-e][1,3]oxazin-7-yl)phenol], for which, in assay [1], the “effect on synthesis of TNFα” value is “reduce the synthesis of TNFα”. Further, the “mean change of LPS-induced TXB2 synthesis” value in assay [2] is listed as “greatest inhibition”. The “synthesis of INF-γ into the supernatant” value in the assay on IFN-γ is listed as “concomitant reduction”. The “synthesis of IL-6 into the supernatant” value in the assay with IL-6 is “concomitant reduction”. Also, the IC50 in assay [3] (normal, non-transformed cells, read-out: IC50 μM, RK Rabbit Kidney) was 53.3 µM; in assay [3] (read-out: toxicity to RK-13 cells (IC50)), > 30 µM.
On to `Oc1cccc(C2=Cc3ccc(O)cc3OC2)c1` [Compound 37-DHE, 3′,7-dihydroxy-isoflav-3-ene, reference compound], for which the “effect on TNFα-induced VCAM expression” value in the assay with VCAM is given as “less pronounced”.

What is called IC50 is the midpoint of a concentration-inhibition curve.
